For series [1] the following is noted: description in words; cited from earlier work.
In another series the test system is BBB. Conditions: previous report; cited from earlier work.
Series [2] is described as follows: In vitro 3D BBB permeability assay. In kind it is in vitro ADME. Conditions: human, pH 7.
The conditions of series [3]: metastatic melanoma patients, 200 mg/m^2 TMZ; cited from earlier work.
The test system of series [4] is p53-p21 axis in Mel-7 cells. Description: Western blotting of p53-p21 axis, cell-cycle proteins and Cyt c, Mel-7. In kind it is cell-based, human. Particulars: 24 hours. In general terms: A western blot detects proteins with antibodies after separation by electrophoresis.

Consider `Cn1nnc2c(C(N)=O)ncn2c1=O` [TMZ, temozolomide], for which the lipophilicity result in series [1] is on record as “lipophilic”. The BBB permeability in the series with BBB was 2.7 ×10⁻⁶ cm/s. Moreover, the Papp A→B (usually the apparent permeability from the apical to the basolateral side of a cell layer) at 30 min, 100 μM in series [2] came to 2.67 ×10⁻⁶ cm/s. For the same compound, the Cmax in series [3] is listed as ~ 20 μg/mL. In series [4] (single agent, cytosolic fraction), the “Cyt c release into the cytoplasm” value is “increased”. For the same compound, the p53 levels entry in series [4] (single-agent treatment, whole-cell lysate) is on record as “substantially increased”.

The record behind these values is PMC10184511 (Neuro-Oncology Advances, 2023).
